Results on one compound are retold here after US11129822B2 (priority 2016, dated 2021).

The structures appear in SMILES notation.

Data set [1] concerns Sprague Dawley rats. The conditions noted are these: rat, in vivo.
In data set [2] the test system is Sprague Dawley rats. The conditions noted are these: rat, in vivo; cited from earlier work.

For the compound `CN(C)C(=O)Oc1ccc[n+](C)c1` [pyridostigimine], the “side effects in treated rats” value in data set [1] was “no side effects”. Further, in data set [2], the “pyridostigmine-induced signs of toxicity” value was “ocular discharge, nasal discharge, hypoactivity, prostration, ataxia, diarrhea, hunched posture, thin appearance and death”.
